Results from BindingDB's records for doi:10.1016/s0960-894x(02)00585-1 (Corvas International, 2002).

Biological target: Prothrombin (Homo sapiens, UniProt P00734)
Assay: In vitro inhibitory activity against human Thrombin (FIIa) cleavage of the chromogenic substrate

Row | Ki | Compound
1 | 5 nM | COc1ccc(CCNc2ncc(C)n(CC(=O)NCc3ccc4[nH]cnc4c3)c2=O)cc1
2 | 18 nM | Cc1cnc(NCCc2ccc(F)cc2)c(=O)n1CC(=O)NCc1ccc2c(N)noc2c1
3 | 24 nM | CCc1cnc(NCCc2ccccc2)c(=O)n1CC(=O)NCc1ccc2[nH]ccc2c1
4 | 3.1 nM | Cc1cnc(NCCc2ccccn2)c(=O)n1CC(=O)NCc1ccc2[nH]ncc2c1
5 | > 3970 nM | Cc1cnc(NCCc2ccccc2)c(=O)n1CC(=O)NCc1ccc2nc(N)sc2c1
6 | 12400 nM | Cc1cnc(NCCc2ccc3c(c2)CCC3)c(=O)n1CC(=O)NCc1ccc2c(ccn2N)c1
7 | 18 nM | Cc1cnc(NCCc2ccccc2)c(=O)n1CC(=O)NCc1ccc2[nH]ncc2c1
8 | 444 nM | Cc1n[nH]c2ccc(CNC(=O)Cn3c(C)cnc(NCCc4ccccc4)c3=O)cc12
9 | 30 nM | Cc1cnc(NCCc2ccc3c(c2)CCC3)c(=O)n1CC(=O)NCc1ccc2[nH]ccc2c1
10 | 224 nM | Cc1cnc(NCCc2ccccc2)c(=O)n1CC(=O)NCc1ccc2[nH]nnc2c1
11 | 2.9 nM | Cc1cnc(NCCc2ccc3c(c2)CCO3)c(=O)n1CC(=O)NCc1ccc2[nH]ncc2c1
12 | 10 nM | COc1cccc(CCNc2ncc(C)n(CC(=O)NCc3ccc4[nH]ncc4c3)c2=O)c1
13 | 33 nM | Cc1cnc(NCCc2ccccc2)c(=O)n1CC(=O)NCc1ccc2[nH]nc(O)c2c1
14 | > 3970 nM | Cc1nc2cc(CNC(=O)Cn3c(C)cnc(NCCc4ccccc4)c3=O)ccc2[nH]1

Further lines, the compound ahead of its results:

Row | Compound | Ki
15 | Cc1cnc(NCC2(c3ccccn3)CC2)c(=O)n1CC(=O)NCc1ccc2c(N)noc2c1 | 26 nM
16 | Cc1ccc(NS(=O)(=O)Cc2ccc(Cl)cc2)c(=O)n1CC(=O)NCc1ccc2[nH]cnc2c1 | 6.5 nM
17 | Cc1cnc(NCC2(c3ccccc3)CCC2)c(=O)n1CC(=O)NCc1ccc2[nH]nc(O)c2c1 | 10 nM
18 | COc1ccc(C2(CNc3ncc(C)n(CC(=O)NCc4ccc5[nH]nc(N)c5c4)c3=O)CC2)cc1 | 9 nM
19 | Cc1ccc(NS(=O)(=O)Cc2ccccc2)c(=O)n1CC(=O)NCc1ccc2c(N)[nH]nc2n1 | 1590 nM
20 | Cc1cc2cn[nH]c2cc1CNC(=O)Cn1c(C)ccc(NS(=O)(=O)Cc2ccccc2)c1=O | 271 nM
21 | Cc1ccc(NS(=O)(=O)c2ccc3c(c2)CCO3)c(=O)n1CC(=O)NCc1ccc2c[nH]nc2c1 | 1320 nM
22 | Cc1ccc(NS(=O)(=O)Cc2ccccc2)c(=O)n1CC(=O)NCc1ccc2c(N)[nH]nc2c1 | 224 nM
23 | Cc1ccc(NS(=O)(=O)c2ccc3c(c2)CCO3)c(=O)n1CC(=O)NCc1ccc2[nH]nc(N)c2c1 | 29 nM
24 | Cc1cnc(NC[C@@H](C)c2ccccc2)c(=O)n1CC(=O)NCc1ccc2[nH]cnc2c1 | 9.3 nM
25 | Cc1cnc(NC[C@H](C)c2ccccc2)c(=O)n1CC(=O)NCc1ccc2[nH]ncc2c1 | 5.7 nM
26 | Cc1cnc(NCC(F)(F)c2ccccc2)c(=O)n1CC(=O)NCc1ccc2c(N)noc2c1 | 2.5 nM
27 | Cc1cnc(NCC2(c3ccc(F)cc3)CC2)c(=O)n1CC(=O)NCc1ccc2c(N)noc2c1 | 16 nM
28 | Cc1cnc(NCCc2ccccc2)c(=O)n1CC(=O)NCc1ccc2c(N)noc2c1 | 82 nM
29 | Cc1ccc(NS(=O)(=O)c2ccc3c(c2)CCO3)c(=O)n1CC(=O)NCc1ccc2[nH]ncc2c1 | 3.9 nM
30 | Cc1ccc(NS(=O)(=O)Cc2ccccc2)c(=O)n1CC(=O)NCc1ccc2[nH]nc(N)c2c1 | 73 nM
31 | Cc1nc(N)ccc1CNC(=O)Cn1c(C)ccc(NS(=O)(=O)Cc2ccccc2)c1=O [L-374087] | 0.7 nM
32 | Cc1cnc(NCC2(c3ccc(F)cc3)CC2)c(=O)n1CC(=O)NCc1ccc2[nH]nc(N)c2c1 | 15 nM
33 | Cc1ccc(NS(=O)(=O)Cc2ccccc2)c(=O)n1CC(=O)NCc1ccc2c(N)noc2n1 | 203 nM
34 | Cc1cnc(NCC(F)(F)c2ccccc2)c(=O)n1CC(=O)NCc1ccc2[nH]nc(N)c2c1 | 4.1 nM
35 | Cc1cnc(NCC(c2ccccc2)c2ccccc2)c(=O)n1CC(=O)NCc1ccc2c(N)noc2c1 | 31 nM
36 | Cc1ccc(NS(=O)(=O)Cc2ccccc2)c(=O)n1CC(=O)NCc1ccc2c(N)noc2c1 | 74 nM
